The NIST ThermoML archive (doi:10.1021/je0603574)
“And” between values parts separate entries of the source, which are not always exact repeats. Equal entries are not always repeated. ± gives the expanded uncertainty stated by the source.

How the values were obtained:
[1] = excess molar enthalpy (molar enthalpy of mixing); xn = mol fraction of the nth substance listed; details: 323.15 K, Liquid, Flow calorimetry
[2] = 323.15 K; Liquid; Closed cell (Static) method

## COC [dimethyl ether] + CCCCO
[1]; x1 = 0.0655
  excess molar enthalpy: 0.0435 ± 0.001 kcal/mol
[1]; x1 = 0.129
  excess molar enthalpy: 0.0805 ± 0.00177 kcal/mol
[1]; x1 = 0.1904
  excess molar enthalpy: 0.114 ± 0.00239 kcal/mol
[1]; x1 = 0.2499
  excess molar enthalpy: 0.141 ± 0.00311 kcal/mol
[1]; x1 = 0.3076
  excess molar enthalpy: 0.161 ± 0.00359 kcal/mol
[1]; x1 = 0.3635
  excess molar enthalpy: 0.179 ± 0.00382 kcal/mol
[1]; x1 = 0.4178
  excess molar enthalpy: 0.191 ± 0.00406 kcal/mol
[1]; x1 = 0.4705
  excess molar enthalpy: 0.199 ± 0.0043 kcal/mol
[1]; x1 = 0.5216
  excess molar enthalpy: 0.203 ± 0.0043 kcal/mol
[1]; x1 = 0.5713
  excess molar enthalpy: 0.204 ± 0.0043 kcal/mol
[1]; x1 = 0.6196
  excess molar enthalpy: 0.199 ± 0.0043 kcal/mol
[1]; x1 = 0.6666
  excess molar enthalpy: 0.192 ± 0.00406 kcal/mol
[1]; x1 = 0.7122
  excess molar enthalpy: 0.182 ± 0.00382 kcal/mol
[1]; x1 = 0.7567
  excess molar enthalpy: 0.167 ± 0.00359 kcal/mol
[1]; x1 = 0.7999
  excess molar enthalpy: 0.15 ± 0.00311 kcal/mol
[1]; x1 = 0.842
  excess molar enthalpy: 0.129 ± 0.00287 kcal/mol
[1]; x1 = 0.8831
  excess molar enthalpy: 0.103 ± 0.00225 kcal/mol
[1]; x1 = 0.923
  excess molar enthalpy: 0.0729 ± 0.00163 kcal/mol
[1]; x1 = 0.962
  excess molar enthalpy: 0.0387 ± 0.000908 kcal/mol

## CCCO [propan-1-ol]
[2]
  vapor or sublimation pressure: 12.32 ± 0.07 kPa

## CCO [ethanol]
[2]
  vapor or sublimation pressure: 29.37 ± 0.14 kPa

## CO [methanol]
[2]
  vapor or sublimation pressure: 55.3 ± 0.25 kPa

## COC [dimethyl ether] + CCCO
[1]; x1 = 0.0541
  excess molar enthalpy: 0.0344 ± 0.000813 kcal/mol
[1]; x1 = 0.1078
  excess molar enthalpy: 0.0655 ± 0.00146 kcal/mol
[1]; x1 = 0.161
  excess molar enthalpy: 0.0937 ± 0.00206 kcal/mol
[1]; x1 = 0.2138
  excess molar enthalpy: 0.118 ± 0.00263 kcal/mol
[1]; x1 = 0.2661
  excess molar enthalpy: 0.139 ± 0.00311 kcal/mol
[1]; x1 = 0.3179
  excess molar enthalpy: 0.158 ± 0.00335 kcal/mol
[1]; x1 = 0.3693
  excess molar enthalpy: 0.173 ± 0.00382 kcal/mol
[1]; x1 = 0.4203
  excess molar enthalpy: 0.184 ± 0.00406 kcal/mol
[1]; x1 = 0.4708
  excess molar enthalpy: 0.192 ± 0.00406 kcal/mol
[1]; x1 = 0.521
  excess molar enthalpy: 0.197 ± 0.0043 kcal/mol
[1]; x1 = 0.5707
  excess molar enthalpy: 0.197 ± 0.0043 kcal/mol
[1]; x1 = 0.62
  excess molar enthalpy: 0.195 ± 0.0043 kcal/mol
[1]; x1 = 0.6688
  excess molar enthalpy: 0.189 ± 0.00406 kcal/mol
[1]; x1 = 0.7173
  excess molar enthalpy: 0.178 ± 0.00382 kcal/mol
[1]; x1 = 0.7654
  excess molar enthalpy: 0.164 ± 0.00359 kcal/mol
[1]; x1 = 0.8131
  excess molar enthalpy: 0.144 ± 0.00311 kcal/mol
[1]; x1 = 0.8604
  excess molar enthalpy: 0.119 ± 0.00263 kcal/mol
[1]; x1 = 0.9073
  excess molar enthalpy: 0.0865 ± 0.00191 kcal/mol
[1]; x1 = 0.9538
  excess molar enthalpy: 0.0466 ± 0.00108 kcal/mol

## COC [dimethyl ether] + CO
[1]; x1 = 0.03
  excess molar enthalpy: 0.00583 ± 0.000239 kcal/mol
[1]; x1 = 0.0614
  excess molar enthalpy: 0.0128 ± 0.000359 kcal/mol
[1]; x1 = 0.0941
  excess molar enthalpy: 0.0203 ± 0.000526 kcal/mol
[1]; x1 = 0.1282
  excess molar enthalpy: 0.0289 ± 0.000693 kcal/mol
[1]; x1 = 0.164
  excess molar enthalpy: 0.0375 ± 0.00086 kcal/mol
[1]; x1 = 0.2014
  excess molar enthalpy: 0.0466 ± 0.00105 kcal/mol
[1]; x1 = 0.2406
  excess molar enthalpy: 0.0564 ± 0.00127 kcal/mol
[1]; x1 = 0.2818
  excess molar enthalpy: 0.0664 ± 0.00148 kcal/mol
[1]; x1 = 0.325
  excess molar enthalpy: 0.0765 ± 0.0017 kcal/mol
[1]; x1 = 0.3704
  excess molar enthalpy: 0.0863 ± 0.00189 kcal/mol
[1]; x1 = 0.4183
  excess molar enthalpy: 0.0949 ± 0.00208 kcal/mol
[1]; x1 = 0.4688
  excess molar enthalpy: 0.104 ± 0.00227 kcal/mol
[1]; x1 = 0.5222
  excess molar enthalpy: 0.112 ± 0.00239 kcal/mol
[1]; x1 = 0.5786
  excess molar enthalpy: 0.117 ± 0.00263 kcal/mol
[1]; x1 = 0.6384
  excess molar enthalpy: 0.12 ± 0.00263 kcal/mol
[1]; x1 = 0.7018
  excess molar enthalpy: 0.12 ± 0.00263 kcal/mol
[1]; x1 = 0.7693
  excess molar enthalpy: 0.113 ± 0.00239 kcal/mol
[1]; x1 = 0.8412
  excess molar enthalpy: 0.0951 ± 0.00208 kcal/mol
[1]; x1 = 0.9179
  excess molar enthalpy: 0.0605 ± 0.00136 kcal/mol

## COC [dimethyl ether]
[2]
  vapor or sublimation pressure: 1143 ± 5.1 kPa and 1142.9 ± 5.1 kPa and 1143.2 ± 5.1 kPa

## COC [dimethyl ether] + CCO
[1]; x1 = 0.0428
  excess molar enthalpy: 0.0209 ± 0.000526 kcal/mol
[1]; x1 = 0.0862
  excess molar enthalpy: 0.0423 ± 0.00098 kcal/mol
[1]; x1 = 0.1303
  excess molar enthalpy: 0.0624 ± 0.00139 kcal/mol
[1]; x1 = 0.175
  excess molar enthalpy: 0.0815 ± 0.00179 kcal/mol
[1]; x1 = 0.2205
  excess molar enthalpy: 0.0994 ± 0.00217 kcal/mol
[1]; x1 = 0.2667
  excess molar enthalpy: 0.116 ± 0.00263 kcal/mol
[1]; x1 = 0.3137
  excess molar enthalpy: 0.131 ± 0.00287 kcal/mol
[1]; x1 = 0.3614
  excess molar enthalpy: 0.145 ± 0.00311 kcal/mol
[1]; x1 = 0.4098
  excess molar enthalpy: 0.156 ± 0.00335 kcal/mol
[1]; x1 = 0.4591
  excess molar enthalpy: 0.166 ± 0.00359 kcal/mol
[1]; x1 = 0.5092
  excess molar enthalpy: 0.171 ± 0.00359 kcal/mol
[1]; x1 = 0.5601
  excess molar enthalpy: 0.175 ± 0.00382 kcal/mol
[1]; x1 = 0.6118
  excess molar enthalpy: 0.177 ± 0.00382 kcal/mol
[1]; x1 = 0.6645
  excess molar enthalpy: 0.173 ± 0.00382 kcal/mol
[1]; x1 = 0.718
  excess molar enthalpy: 0.166 ± 0.00359 kcal/mol
[1]; x1 = 0.7725
  excess molar enthalpy: 0.153 ± 0.00335 kcal/mol
[1]; x1 = 0.8279
  excess molar enthalpy: 0.132 ± 0.00287 kcal/mol
[1]; x1 = 0.8842
  excess molar enthalpy: 0.102 ± 0.00222 kcal/mol
[1]; x1 = 0.9416
  excess molar enthalpy: 0.0583 ± 0.00131 kcal/mol

## CCCCO [butan-1-ol]
[2]
  vapor or sublimation pressure: 4.61 ± 0.05 kPa
